Reference: PubChem BioAssay (NCI)
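Where inhibition never reached the appropriate level, the endpoint shown equals the highest concentration tested. Otherwise, values were interpolated linearly from a five-concentration, 48-hour dose response in 96-well plates. The concentration for full growth arrest is given as TGI.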

How the values were obtained:
Test in all cases: NCI tumour cell line growth inhibition, 48 h
TK-10 renal = system: TK-10 renal
KM12 colon = system: KM12 colon
SNB-19 CNS = system: SNB-19 CNS
DU-145 prostate = system: DU-145 prostate
T-47D breast = system: T-47D breast
SN12C renal = system: SN12C renal
K-562 leukemia = system: K-562 leukemia
UO-31 renal = system: UO-31 renal
MCF7 breast = system: MCF7 breast
OVCAR-3 ovarian = system: OVCAR-3 ovarian
PC-3 prostate = system: PC-3 prostate
CAKI-1 renal = system: CAKI-1 renal
HCC-2998 colon = system: HCC-2998 colon
HL-60(TB) leukemia = system: HL-60(TB) leukemia
HOP-62 NSCLC = system: HOP-62 NSCLC
RPMI-8226 leukemia = system: RPMI-8226 leukemia
U251 CNS = system: U251 CNS
SW-620 colon = system: SW-620 colon
HS 578T breast = system: HS 578T breast
A498 renal = system: A498 renal
NCI-H23 lung = system: NCI-H23 lung
SF-295 CNS = system: SF-295 CNS
HOP-92 NSCLC = system: HOP-92 NSCLC
OVCAR-4 ovarian = system: OVCAR-4 ovarian
NCI-H460 lung = system: NCI-H460 lung
MDA-N = system: MDA-N
M14 melanoma = system: M14 melanoma
OVCAR-5 ovarian = system: OVCAR-5 ovarian
SF-268 CNS = system: SF-268 CNS
CCRF-CEM leukemia = system: CCRF-CEM leukemia
ACHN renal = system: ACHN renal
NCI/ADR-RES ovarian = system: NCI/ADR-RES ovarian
MOLT-4 leukemia = system: MOLT-4 leukemia
NCI-H522 lung = system: NCI-H522 lung
SK-MEL-28 melanoma = system: SK-MEL-28 melanoma
A549 NSCLC = system: A549 NSCLC
SF-539 CNS = system: SF-539 CNS
HCT-116 colon = system: HCT-116 colon
HCT-15 colon = system: HCT-15 colon
SK-MEL-5 melanoma = system: SK-MEL-5 melanoma
SK-OV-3 ovarian = system: SK-OV-3 ovarian
786-0 renal = system: 786-0 renal
EKVX NSCLC = system: EKVX NSCLC
OVCAR-8 ovarian = system: OVCAR-8 ovarian
SNB-75 CNS = system: SNB-75 CNS
NCI-H226 lung = system: NCI-H226 lung
MDA-MB-435 = system: MDA-MB-435
LOX IMVI melanoma = system: LOX IMVI melanoma
HT29 colon = system: HT29 colon
IGROV1 ovarian = system: IGROV1 ovarian
COLO 205 colon = system: COLO 205 colon
SK-MEL-2 melanoma = system: SK-MEL-2 melanoma
MDA-MB-231 breast = system: MDA-MB-231 breast
UACC-62 melanoma = system: UACC-62 melanoma
MALME-3M melanoma = system: MALME-3M melanoma
UACC-257 melanoma = system: UACC-257 melanoma
SR leukemia = system: SR leukemia
RXF 393 renal = system: RXF 393 renal

## n1onc2c1NC1Nc3nonc3NC1N2 (configuration not stated)
TK-10 renal
  TGI: > 100 µM
KM12 colon
  TGI: > 100 µM
SNB-19 CNS
  TGI: > 100 µM
DU-145 prostate
  TGI: > 100 µM
T-47D breast
  TGI: > 100 µM
SN12C renal
  TGI: > 100 µM
K-562 leukemia
  TGI: > 100 µM
UO-31 renal
  TGI: > 100 µM
MCF7 breast
  TGI: > 100 µM
OVCAR-3 ovarian
  TGI: > 100 µM
PC-3 prostate
  TGI: > 100 µM
CAKI-1 renal
  TGI: > 100 µM
HCC-2998 colon
  TGI: > 100 µM
HL-60(TB) leukemia
  TGI: > 100 µM
HOP-62 NSCLC
  TGI: > 100 µM
RPMI-8226 leukemia
  TGI: > 100 µM
U251 CNS
  TGI: > 100 µM
SW-620 colon
  TGI: > 100 µM
HS 578T breast
  TGI: > 100 µM
A498 renal
  TGI: > 100 µM
NCI-H23 lung
  TGI: > 100 µM
SF-295 CNS
  TGI: > 100 µM
HOP-92 NSCLC
  TGI: > 100 µM
OVCAR-4 ovarian
  TGI: > 100 µM
NCI-H460 lung
  TGI: > 100 µM
MDA-N
  TGI: > 100 µM
M14 melanoma
  TGI: > 100 µM
OVCAR-5 ovarian
  TGI: > 100 µM
SF-268 CNS
  TGI: > 100 µM
CCRF-CEM leukemia
  TGI: > 100 µM
ACHN renal
  TGI: > 100 µM
NCI/ADR-RES ovarian
  TGI: > 100 µM
MOLT-4 leukemia
  TGI: > 100 µM
NCI-H522 lung
  TGI: > 100 µM
SK-MEL-28 melanoma
  TGI: > 100 µM
A549 NSCLC
  TGI: > 100 µM
SF-539 CNS
  TGI: > 100 µM
HCT-116 colon
  TGI: > 100 µM
HCT-15 colon
  TGI: > 100 µM
SK-MEL-5 melanoma
  TGI: > 100 µM
SK-OV-3 ovarian
  TGI: > 100 µM
786-0 renal
  TGI: > 100 µM
EKVX NSCLC
  TGI: > 100 µM
OVCAR-8 ovarian
  TGI: > 100 µM
SNB-75 CNS
  TGI: > 100 µM
NCI-H226 lung
  TGI: > 100 µM
MDA-MB-435
  TGI: > 100 µM
LOX IMVI melanoma
  TGI: > 100 µM
HT29 colon
  TGI: > 100 µM
IGROV1 ovarian
  TGI: > 100 µM
COLO 205 colon
  TGI: > 100 µM

## CC1=NOC2(C1)C(=O)Nc1ccccc12 (configuration not stated)
TK-10 renal
  TGI: > 100 µM
KM12 colon
  TGI: > 100 µM
SNB-19 CNS
  TGI: > 100 µM
DU-145 prostate
  TGI: > 100 µM
T-47D breast
  TGI: > 100 µM
SN12C renal
  TGI: > 100 µM
K-562 leukemia
  TGI: > 100 µM
MCF7 breast
  TGI: > 100 µM
OVCAR-3 ovarian
  TGI: > 100 µM
SK-MEL-2 melanoma
  TGI: > 100 µM
MDA-MB-231 breast
  TGI: > 100 µM
PC-3 prostate
  TGI: > 100 µM
CAKI-1 renal
  TGI: > 100 µM
HCC-2998 colon
  TGI: > 100 µM
HL-60(TB) leukemia
  TGI: > 100 µM
HOP-62 NSCLC
  TGI: > 100 µM
RPMI-8226 leukemia
  TGI: > 100 µM
U251 CNS
  TGI: > 100 µM
SW-620 colon
  TGI: > 100 µM
HS 578T breast
  TGI: > 100 µM
A498 renal
  TGI: 96.4 µM
UACC-62 melanoma
  TGI: > 100 µM
NCI-H23 lung
  TGI: > 100 µM
SF-295 CNS
  TGI: > 100 µM
OVCAR-4 ovarian
  TGI: > 100 µM
NCI-H460 lung
  TGI: > 100 µM
MDA-N
  TGI: > 100 µM
MALME-3M melanoma
  TGI: > 100 µM
M14 melanoma
  TGI: > 100 µM
OVCAR-5 ovarian
  TGI: > 100 µM
SF-268 CNS
  TGI: > 100 µM
CCRF-CEM leukemia
  TGI: > 100 µM
UACC-257 melanoma
  TGI: > 100 µM
ACHN renal
  TGI: > 100 µM
NCI/ADR-RES ovarian
  TGI: > 100 µM
MOLT-4 leukemia
  TGI: > 100 µM
NCI-H522 lung
  TGI: > 100 µM
SR leukemia
  TGI: > 100 µM
SK-MEL-28 melanoma
  TGI: > 100 µM
A549 NSCLC
  TGI: > 100 µM
SF-539 CNS
  TGI: > 100 µM
HCT-116 colon
  TGI: > 100 µM
HCT-15 colon
  TGI: > 100 µM
SK-MEL-5 melanoma
  TGI: > 100 µM
SK-OV-3 ovarian
  TGI: > 100 µM
786-0 renal
  TGI: > 100 µM
EKVX NSCLC
  TGI: > 100 µM
OVCAR-8 ovarian
  TGI: > 100 µM
SNB-75 CNS
  TGI: > 100 µM
NCI-H226 lung
  TGI: > 100 µM
MDA-MB-435
  TGI: > 100 µM
LOX IMVI melanoma
  TGI: > 100 µM
RXF 393 renal
  TGI: > 100 µM
HT29 colon
  TGI: > 100 µM
IGROV1 ovarian
  TGI: > 100 µM
COLO 205 colon
  TGI: > 100 µM
